In patent US20030186464A1, “Surface plasmon resonance methods” (priority 2002, published 2003):
Like-named read-outs stand apart in the source and are kept apart here. Each block holds one molecule with its values, some of them ahead of it.

Tests used:
immobilized IL-2 = target: T1, immobilized IL-2 (Homo sapiens, UniProt P60568); assay: Double ligand SPR on immobilized interleukin-2 (Examples 9-11); type: binding
T1 construct: made in house; host or cells: E. coli
Method: A CM5 sensor chip (Biacore-BR-1000-14) is docked in a Biacore 2000 SPR device and normalized using a standard Biacore protocol with 70% glycerol. The chip is next equilibrated in PBS for approximately 1 hr at a 20 μL/min flow rate. The dextran surface of the chip is activated through an NHS/EDC coupling. This coupling is done using an amine coupling kit (Biacore—BR-100-50) containing N-hydroxysuccinimide (NHS 11.5 mg/mL) and N-ethyl-N′-(3-dimethylaminopropyl) carbodiimide hydrochloride (EDC 75 mg/mL). First, the two reagents are mixed in a 1:1 ratio and then 35 μL of the mixture are injected at 5 μL/min. The chip is activated one flow cell at a time, and that flow cell is subsequently labeled with protein.
IL-2 is expressed in E. coli cells and purified using standard procedures. Protein is then concentrated to 100 μM and the buffer is exchanged to 100 mM MES pH 5.75 (Nap-5 column, Pierce). A sensorgram is then run over the activated flow cell at 2,L/min of PBS. The IL-2 solution is then injected at 2 μL/min for 10 min. After injection the change in RUs is measured by marking the RUs at t=0 and t=final and subtracting. This gives the total RU change, which is related to the total mass of protein successfully coupled to the CM5 surface. The total mass will later be used to determine stoichiometry of binding. This procedure is then repeated with another arbitrary protein to create a measure for nonspecific binding. The arbitrary protein is immobilized on an adjacent cell. […] The sensorgram is then altered to flow across all four cells on the CM5 chip at 5 μL/min PBS. A solution of 1 M ethanolamine hydrochloride-NaOH pH 8.5 (Amine coupling kit, Biacore-BR-100-50) is injected at 5 μL/min for 7 min. Proteins are immobilized at densities of 100-160 fmol/mm^2. The chip is equilibrated overnight in PBS+0.05% azide+2% DMSO at 20 μL/min.
In this experiment, variable concentrations of a compound are tested at a constant concentration of another compound. The compound held constant is 2c, for example (structure shown in Example 2). To determine appropriate constant concentrations for 2c, a compound titration is first performed. Dilution series of the compounds are typically performed to produce seven solutions having final compound concentrations of 30 mM, 10 mM, 3.3 mM, 1.1 mM, 0.37 mM, 0.12 mM, and 0.041 mM; an eighth solution is a DMSO-only baseline. The compounds are then diluted into PBS+0.05% azide to final concentrations of 300 μM, 100 μM, 33 μM, 11 μM, 3.7 μM, 1.2 μM, 0.41 μM. The compound solutions are injected from lowest concentration to highest at 40 μL/min for 1 min. The SPR software method includes a 1 min wash before injection, the injection and then a 3 min wash after the injection.
These dilution series are analyzed by BIAevaluation software version 3.0. Sensorgrams are plotted for compound binding to the IL-2 labeled cell of the chip. The sensorgrams are modified by subtracting the sensorgrams for the appropriate compound dilutions over cell 1 (a blank cell). This subtraction step removes any RU changes that might occur due to non-specific interactions between the compound and the chip itself or refractive changes in the buffer. Finally, the eight sensorgrams produced from the compound dilution series are zeroed at the average of their starting RUs. Then the sensorgram produced by injecting DMSO only is subtracted to reveal the final sensorgrams used to determine relative binding.
To determine KdSPR for the compound, the compound concentration is plotted on the X-axis, while the fraction bound at the plateau of the injection is plotted on the Y-axis. The curve is then analyzed via non-linear regression analysis (Kaleidagraph, Synergy Software). […] The concentration chosen is where the RUs remain constant at the top of the binding curve and thus the IL-2:2c ratio is 1. For 2c, this concentration is 100 μM.
A second compound is then run, this time in both the presence and absence of 2c. […]

[1] = target: T2, human interleukin-1 receptor type 1 (Homo sapiens, UniProt P14778); assay: SPR inhibition of binding of soluble IL-1 R to an immobilized peptide ligand (Examples 12-13); settings: for IC50: inhibition of binding of IL-1 R to the immobilized peptide […]
T2 construct: soluble human II-1 R was allowed to flow over the surface; made in house; host or cells: baculovirus-infected TN-5B1-4 insect cells (High Five)
T2 sequence (P14778 18-336 limits assumed): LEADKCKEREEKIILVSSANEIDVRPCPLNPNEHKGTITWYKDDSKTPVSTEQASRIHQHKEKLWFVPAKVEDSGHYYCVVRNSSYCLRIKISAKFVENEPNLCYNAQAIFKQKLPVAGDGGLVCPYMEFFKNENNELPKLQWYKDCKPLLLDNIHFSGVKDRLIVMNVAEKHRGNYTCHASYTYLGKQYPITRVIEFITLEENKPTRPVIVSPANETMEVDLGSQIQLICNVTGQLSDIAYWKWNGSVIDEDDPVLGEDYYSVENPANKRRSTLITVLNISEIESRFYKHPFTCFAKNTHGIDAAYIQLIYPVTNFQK
Method: A CM5 sensor chip (Biacore-BR-1000-14) is docked in a Biacore 2000 SPR device. The chip is then normalized using standard Biacore protocol with 70% glycerol. The chip is next equilibrated in PBS for approximately 1 hr at 20,L/min flow rate. The dextran surface of the chip is activated through an NHS/EDC coupling. This coupling is done using an amine coupling kit (Biacore—BR-100-50) containing N-hydroxysuccinimide (NHS 11.5 mg/mL) and N-ethyl-N′-(3-dimethylaminopropyl) carbodiimide hydrochloride (EDC 75 mg/mL). The two reagents are mixed in a 1:1 ratio and 35 μL of the mixture are injected at 5 μL/min. The activated chip is then modified with a cysteine reactive group, to enable labeling of the CM5 chip with cysteine chemistry. A solution of 100 μM MTSL in PBS is injected at 2 μL/min for 10 min over the activated cell.
A peptide that is a nanomolar inhibitor for the protein of interest was synthesized at Synpep, to include a cysteine residue at the N-terminus. This peptide was brought up to a 100 μM solution in PBS. This solution is then injected over the activated cell at 2 μL/min for 10 min. After injection one measures the change in RUs by marking the RUs at t=0 and t=final and subtracting. This gives the total RU change, which is related to the total mass of peptide successfully coupled to the CM5 surface. The sensorgram is then altered to flow across all four cells on the CM5 chip at 5 μL/min PBS. A solution of 1 M ethanolamine hydrochloride-NaOH pH 8.5 (Amine coupling kit, Biacore—BR-100-50) is injected at […] for 7 min. The peptide is immobilized at a density of 40 fmol/mm^2. The chip is equilibrated overnight in PBS+0.05% azide at 20 μL/min.
IL-1 R is expressed in baculovirus-infected TN-5B1-4 insect cells (High Five) and purified using standard procedures. To determine an appropriate constant concentration of protein to use, a protein titration is first performed. A dilution series of the protein is typically performed to produce seven protein solutions having final concentrations of from 300 nM, 100 nM, 33 nM, 11 nM, 3.7 nM, 1.2 nM, and 0.41 nM in PBS+0.05% azide, and an eighth solution is used as a PBS-only baseline. The protein solutions are injected from lowest concentration to highest at 40 μL/min for 1 min. The SPR software method includes a 1 min wash before injection, the injection and then a 3 min wash after the injection.
These dilutions series are analyzed by BIAevaluation software version 3.0. Sensorgrams are plotted for protein binding to the immobilized peptide cell. The sensorgrams are modified by subtracting the sensorgrams for the appropriate protein dilutions over cell 1 (a blank cell). This subtraction step removes any RU changes that might occur due to nonspecific interactions between the protein and the chip itself or refractive changes in the buffer. Finally, the eight sensorgrams produced from the protein dilution series are zeroed at the average of their starting RUs. Then the sensorgram produced by injecting PBS only is subtracted to reveal the final sensorgrams used to determine relative binding.
To determine KdSPR for the protein, the protein concentration is plotted on the X-axis, while the fraction bound at the plateau of the injection is plotted on the Y-axis. The curve is then analyzed via nonlinear regression analysis (Kaleidagraph, Synergy Software). […] One wants to keep protein constant and non-saturated to be assured of not having an excess of protein in solution. For this protein, 30 nM was chosen. […]

T1 sequence (P60568 21-153): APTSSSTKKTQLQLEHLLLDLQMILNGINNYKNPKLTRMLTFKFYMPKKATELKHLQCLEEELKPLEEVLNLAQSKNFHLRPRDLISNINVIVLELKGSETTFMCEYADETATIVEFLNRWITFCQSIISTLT

Kd (immobilized IL-2; FIG. 7 sensorgrams, 0-500 μM of compound over immobilized IL-2, read-out: apparent Kd): ~175 µM | IC50 (immobilized IL-2; constant 50 μM of 2c, immobilized IL-2, FIG. 9, read-out: IC50 inhibiting the binding of 2c): 185 µM | Kd (immobilized IL-2; dose-response plot of FIG. 9, absence of 2c, read-out: Kd for binding IL-2): 210 µM
Structure (SMILES): COCCNC(=O)[C@@H]1CCCN1C(=O)c1cc2ccccc2s1 [Compound 1]

Kd,SPR IL-2 (immobilized IL-2; immobilized IL-2, no other compound): Inactive
Structure (SMILES): COCC(=O)NC1CSc2ccccc2C1=O (stereo not shown) [Compound 20]

IC50SPR ([1]; inhibition of binding of IL-1 R to the immobilized peptide CETPFTWEESNAYYWQPYALPL): Inactive
Structure (SMILES): NC(=O)c1cccc(NC(=O)CCC(=O)NCCc2c[nH]c3ccccc23)c1 [Compound 22]

The remaining lines, values behind:

Structure (SMILES): N=C(N)N[C@@H](C(=O)NCC(=O)N1CCC(c2cc(-c3ccc(O)cc3Cl)[nH]n2)CC1)C1CCCCC1 [Compound 16]
Kd (immobilized IL-2; Example 11, immobilized interleukin-2, read-out: apparent Kd in SPR experiments): 5 µM

Structure (SMILES): NC(=O)CC[C@H](NC(=O)[C@H](Cc1ccc(OP(=O)(O)O)cc1)NC(=O)[C@H](Cc1ccc2ccccc2c1)NC(=O)Cc1ccc(O)cc1)C(=O)N1CCN(C(=O)Cc2ccc(O)cc2)CC1 [Compound 21]
IC50 [1]: 10.5 µM

Structure (SMILES): NC(=O)c1cccc(NC(=O)CCC(=O)Nc2ccc3[nH]ccc3c2)c1 [Compound 23]
IC50 [1]: 560 µM

Structure (SMILES): NC(=O)Cc1cccc(NC(=O)c2cccc(NC(=O)c3cc4cccc(O)c4cc3O)c2)c1 [Compound 24]
IC50 [1]: 95 µM

Structure (SMILES): NC(=O)Cc1ccc(NC(=O)NCc2ccc(C3=CN=C(N)NC3)cc2)cc1 [Compound 25]
IC50 [1]: 240 µM
